Test results as given in patent US20210161882A1, “DEPOT ADMINISTRATION OF ILOPERIDONE” (Vanda Pharmaceuticals Inc., priority 2018, published 2021).

Assay: Crystalline iloperidone particle size determination (Malvern Mastersizer 2000 laser light scattering)
Type: physicochemical
Settings: wet dispersion in saturated 0.1% Tween 80, average of n=2 trials, each the average of 5 acquisitions
Description: Crystalline iloperidone particle sizes are determined in accordance with the following example. The Malvern Mastersizer 2000 (Malvern Instruments, Ltd., Malvern, UK) laser light scattering particle size analyzer and Hydro 2000 (Malvern Instruments, Ltd., Malvern, UK) wet sample dispersion unit are turned on, allowing time for the laser to warm up, e.g., for about 30 minutes. The PC is turned on, Mastersizer 2000 software is opened, and a file is created for storing results. An instrument verification check is performed according to SGS SOP EQP-525-10 Operation Preventative Maintenance and Performance Verification of the Mastersizer 2000. A new file for results storage is created, and the device is configured for Existing SOP for iloperidone. The parameters listed under the SOP are verified to confirm accuracy, namely: sample material name, iloperidone depot for injection; refractive index, 1.53, absorption, 0.1; dispersant medium, saturate 0.1% Tween 80 (Sigma Aldrich Co., St. Louis, Mo.) with 0.1% w/v sample; refractive index, 1.33; result model, general purpose; particle shape, irregular; sensitivity, normal; pump speed, 2000 RPM; sample measurement time, 12 seconds (12,000 snaps); background measurement time, 12 seconds (12,000 snaps); size range, 0.020 to 2000.000 μm; aliquot per SOP, 1; number of measurement cycles, 5 (report average); obscuration limits, 10-20%. Verification is made that the outlet tube of the dispersion unit is into the waste tank, and the tank is not full; the waste container is emptied on an as needed basis. […]
Samples are prepared by saturating 0.1% Tween 80 (Sigma-Aldrich Co., St. Louis, Mo.) polysorbate 80 with 0.1% w/v crystalline iloperidone. […] The SOP is started with the parameters for the sample so that the instrument is ready to perform measurements as soon as the sample is introduced to the Hydro 2000 unit. […] Each sample is measured twice (out of one preparation).
The resulting histogram is then evaluated. […]

**Q.** With COc1cc(C(C)=O)ccc1OCCCN1CCC(c2noc3cc(F)ccc23)CC1 [crystalline iloperidone, 1-[4-[3-[4-(6-flouro-1,2-benzisoxazol-3-yl)-1-piperidinyl]propoxy]-3-methoxyphenyl]ethanone] as the compound, how does the “average Dv10” value read?
**A.** 14-50 μm

**Q.** What about the “average Dv50” value of the same compound?
**A.** 91-118 μm

**Q.** And the “average Dv90” value?
**A.** 188-241 μm
